Data on 53 compounds can be found in ChEMBL document CHEMBL1201862, “PubChem BioAssay data set” (2004).

Activity calls are given as the source filed them.

The target of data set [1] is T1, Heat shock factor protein 1 (Mus musculus, UniProt P38532).
T1 sequence (P38532 whole entry): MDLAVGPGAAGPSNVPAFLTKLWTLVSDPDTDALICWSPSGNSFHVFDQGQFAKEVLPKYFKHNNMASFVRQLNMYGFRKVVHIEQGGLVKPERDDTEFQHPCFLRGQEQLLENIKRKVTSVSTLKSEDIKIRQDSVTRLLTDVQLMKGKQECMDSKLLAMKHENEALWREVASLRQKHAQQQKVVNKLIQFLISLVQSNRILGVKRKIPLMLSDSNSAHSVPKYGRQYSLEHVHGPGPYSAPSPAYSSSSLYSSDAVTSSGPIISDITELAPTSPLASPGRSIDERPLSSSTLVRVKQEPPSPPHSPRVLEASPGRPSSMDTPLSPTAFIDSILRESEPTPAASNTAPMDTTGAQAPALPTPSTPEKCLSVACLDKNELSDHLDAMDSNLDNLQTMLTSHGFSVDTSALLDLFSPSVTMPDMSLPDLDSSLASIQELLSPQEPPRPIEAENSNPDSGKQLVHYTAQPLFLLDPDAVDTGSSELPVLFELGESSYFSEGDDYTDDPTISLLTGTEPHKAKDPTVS
The data set is described as follows: inhibition of MG132-induced HSE-luciferase signal, confirmation, cell-based, NIH3T3, luminescence, dose retest (AID 2382).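 Further: NIH3T3 fibroblasts with HSF1-driven luciferase reporter stressed by proteasome inhibitor MG132; luminescence from HSF1-driven luciferase expression after 8 hours of MG132 stress.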 The format is functional.

Another data set concerns the target Cytochrome P450 2C19 (Homo sapiens, UniProt P33261). As to the kind of experiment: Cytochrome panel assay with activity outcomes. Panel member name: p450-cyp2c19 Compounds with AC50 equal or less than 10 uM are considered active. The format is functional.
The target in the next data set is Cytochrome P450 3A4 (Homo sapiens, UniProt P08684).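 Further: CYP3A4 tested as one member of a cytochrome P450 panel screen.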
The next data set has as its target T2, Cytochrome P450 1A2 (Homo sapiens, UniProt P05177).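 Further: PubChem cytochrome P450 panel assay, CYP1A2 panel member.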
T2 sequence (P05177 whole entry): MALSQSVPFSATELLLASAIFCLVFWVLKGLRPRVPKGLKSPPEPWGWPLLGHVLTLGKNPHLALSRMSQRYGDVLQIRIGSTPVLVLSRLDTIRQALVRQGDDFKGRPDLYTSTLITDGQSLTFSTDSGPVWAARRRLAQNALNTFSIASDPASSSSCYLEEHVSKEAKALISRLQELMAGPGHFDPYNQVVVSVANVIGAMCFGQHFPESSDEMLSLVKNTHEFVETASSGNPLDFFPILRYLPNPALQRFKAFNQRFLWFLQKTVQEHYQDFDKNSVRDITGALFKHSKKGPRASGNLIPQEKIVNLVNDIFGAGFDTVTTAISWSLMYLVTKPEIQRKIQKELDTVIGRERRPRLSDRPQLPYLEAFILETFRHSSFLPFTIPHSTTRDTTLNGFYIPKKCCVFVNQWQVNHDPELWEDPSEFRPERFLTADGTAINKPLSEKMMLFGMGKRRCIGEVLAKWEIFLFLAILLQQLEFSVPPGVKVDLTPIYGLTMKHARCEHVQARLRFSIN

In a further data set the target is Cytochrome P450 2D6 (Homo sapiens, UniProt P10635).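 Further: CYP2D6 member of a cytochrome P450 panel assay.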
Data set [2] can be described thus: P. falciparum Dd2 growth inhibitors, dose response, SYBR Green, cherry-picked samples (AID 1159567). The format is functional, cell-based.

Broadly, the EC50 is the concentration that produces a half-maximal response. The AC50 is the midpoint of the concentration-response curve, whichever way the signal moves.

Cytochrome P450 3A4, sequence (P08684 whole entry): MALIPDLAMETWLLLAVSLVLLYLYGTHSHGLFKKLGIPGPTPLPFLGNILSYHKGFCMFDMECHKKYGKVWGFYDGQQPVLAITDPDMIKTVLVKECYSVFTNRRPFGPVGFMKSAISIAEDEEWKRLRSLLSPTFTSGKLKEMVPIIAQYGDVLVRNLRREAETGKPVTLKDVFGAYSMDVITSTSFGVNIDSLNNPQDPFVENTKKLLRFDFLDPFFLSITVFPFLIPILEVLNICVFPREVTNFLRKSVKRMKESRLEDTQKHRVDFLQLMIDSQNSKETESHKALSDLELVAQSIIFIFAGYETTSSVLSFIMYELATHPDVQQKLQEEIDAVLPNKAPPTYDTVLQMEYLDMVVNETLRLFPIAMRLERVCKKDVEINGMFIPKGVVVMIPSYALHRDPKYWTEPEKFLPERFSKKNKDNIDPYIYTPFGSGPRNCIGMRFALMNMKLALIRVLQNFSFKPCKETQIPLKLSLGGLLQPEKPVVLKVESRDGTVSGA
Cytochrome P450 2D6, sequence (P10635 whole entry): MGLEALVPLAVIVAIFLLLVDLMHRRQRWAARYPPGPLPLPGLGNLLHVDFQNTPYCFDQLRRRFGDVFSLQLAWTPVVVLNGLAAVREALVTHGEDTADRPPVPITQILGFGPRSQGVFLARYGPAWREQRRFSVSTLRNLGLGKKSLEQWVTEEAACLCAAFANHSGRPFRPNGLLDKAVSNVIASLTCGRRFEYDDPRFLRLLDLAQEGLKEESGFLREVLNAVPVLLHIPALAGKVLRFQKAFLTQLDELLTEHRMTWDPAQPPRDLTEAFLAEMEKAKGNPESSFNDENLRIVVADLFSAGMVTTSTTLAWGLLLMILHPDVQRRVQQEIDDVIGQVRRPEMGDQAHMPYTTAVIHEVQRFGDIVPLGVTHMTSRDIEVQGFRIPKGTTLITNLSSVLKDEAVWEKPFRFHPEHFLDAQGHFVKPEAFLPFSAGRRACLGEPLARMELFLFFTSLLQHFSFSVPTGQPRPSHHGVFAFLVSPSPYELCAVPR
Cytochrome P450 2C19, sequence (P33261 whole entry): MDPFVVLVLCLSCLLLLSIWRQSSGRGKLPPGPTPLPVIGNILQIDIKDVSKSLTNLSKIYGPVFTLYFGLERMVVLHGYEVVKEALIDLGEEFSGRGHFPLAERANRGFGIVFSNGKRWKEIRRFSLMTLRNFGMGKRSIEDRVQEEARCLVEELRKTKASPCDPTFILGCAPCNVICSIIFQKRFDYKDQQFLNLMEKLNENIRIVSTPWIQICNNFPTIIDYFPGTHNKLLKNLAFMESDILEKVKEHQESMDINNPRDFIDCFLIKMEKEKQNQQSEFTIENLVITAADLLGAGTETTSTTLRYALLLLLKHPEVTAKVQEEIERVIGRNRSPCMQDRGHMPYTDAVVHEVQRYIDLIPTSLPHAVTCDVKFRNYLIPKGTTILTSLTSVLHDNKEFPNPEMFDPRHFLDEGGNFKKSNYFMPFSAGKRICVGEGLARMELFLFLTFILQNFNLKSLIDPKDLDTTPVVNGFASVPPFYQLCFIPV

With `N#C/C(=C\c1ccccn1)c1ccccn1`, the half-maximal effective concentration (EC50) in data set [1] is reported as > 195 µM (not active).

On to `Cc1ccc(N(Cc2cc3ccc(C)cc3nc2O)C(=O)c2cccs2)cc1`, for which the EC50 in data set [1] is > 195 µM (not active).

For the compound `Cc1onc(-c2c(F)cccc2Cl)c1C(=O)c1ccccc1`, the EC50 in data set [1] is given as > 195 µM (not active).

As for `Cc1ccc(C)c(N(CC(=O)NC2CCCC2)C(=O)c2cc3cc4cccc(C)c4nc3s2)c1`, the AC50 on Cytochrome P450 2C19 (read-out: AC50) was 6.31 µM (inconclusive); at Cytochrome P450 3A4 it was 2.51 µM (inconclusive).

For `O=C1/C(=C\c2ccccc2)C[C@@]2(O)[C@H]3Cc4ccc(O)c5c4[C@@]2(CCN3CC2CC2)[C@@H]1O5`, the figures for the half-maximal activity concentration (AC50) on Cytochrome P450 2C19 (read-out: AC50), at Cytochrome P450 3A4 and at Cytochrome P450 1A2 were 15.8 µM (inconclusive), 31.6 µM (inconclusive) and 31.6 µM (inconclusive), respectively.

Turning to `CCCNC(=O)c1ccc(N2CCC3(CC2)CC(c2cccc(Br)c2)=NO3)c(NC(=O)c2ccc(Br)cc2)c1`, the EC50 in data set [1] was > 195 µM (not active).

With `Cc1ccc(NC2=NC(=O)/C(=C\c3cccs3)S2)cc1C`, the EC50 in data set [1] was > 195 µM (not active).

For `CCCCn1c(C(C)NC(=O)CC)nc2ccccc21` (stereo unspecified), the EC50 in data set [1] is > 195 µM (not active).

As for `Cc1c2cccc(Sc3ccccc3)c2c2c3c(cccc13)[S+](c1ccccc1)C2` (stereo unspecified), the values for the AC50 at Cytochrome P450 3A4 and at Cytochrome P450 2D6 were 3.16 µM (inconclusive) and 5.01 µM (inconclusive), respectively.

Turning to `Cc1oc2c(C)c(O)ccc2c(=O)c1-c1ccc2ccccc2n1`, the figures for the concentration at half-maximal activity (AC50) on Cytochrome P450 2C19 (read-out: AC50) and at Cytochrome P450 3A4 were 2.82 µM (inconclusive) and 7.94 µM (inconclusive), respectively.

Turning to `C[C@@H](C(=O)Nc1ccc2ccccc2c1)[C@H]1C[C@]1(C)[C@H](NC(=O)c1cnccn1)c1ccccc1`, the AC50 on Cytochrome P450 1A2 was 25.1 µM (inconclusive).

Turning to `Cn1c(C(=O)O)c(CC(=O)Nc2ccc3c(c2)OCCO3)c2ccccc21`, the concentration giving a half-maximal response (EC50) in data set [1] is 1.95 µM (active).

For the compound `COc1cccc(N(CC(=O)Nc2cccnc2)S(C)(=O)=O)c1`, the EC50 in data set [1] is recorded as > 195 µM (not active).

For `COc1ncc2nc(-c3cccs3)c(=O)n(Cc3cccs3)c2n1`, the AC50 on Cytochrome P450 2D6 was 3.98 µM (inconclusive).

As for `CC(=O)NCCNc1ncnc2ccc(-c3ccccc3C#N)cc12`, the figures for the AC50 at Cytochrome P450 2C19 (read-out: AC50) and at Cytochrome P450 3A4 were 10 µM (inconclusive) and 25.1 µM (inconclusive), respectively.

As for `O=C(CSc1ccccn1)Nc1nc2ccc(Br)cc2s1`, the AC50 at Cytochrome P450 3A4 is 22.4 µM (inconclusive); on Cytochrome P450 2D6, 15.8 µM (inconclusive).

For the compound `Cc1noc(C)c1-c1cc(NC2CC2)ncn1`, the values for the concentration at half-maximal activity (AC50) at Cytochrome P450 2C19 (read-out: AC50), on Cytochrome P450 3A4 and on Cytochrome P450 2D6 were 31.6 µM (inconclusive), 25.1 µM (inconclusive) and 20 µM (inconclusive), respectively.

As for `Cc1ccc(Cn2nc(C)c(NC(=O)c3cc(-c4ccco4)on3)c2C)cc1`, the concentration at half-maximal activity (AC50) at Cytochrome P450 1A2 was 39.8 µM (inconclusive).

In the case of `O=[N+]([O-])c1cccc(-c2nnc(-c3ccccc3)o2)c1`, the EC50 in data set [1] is on record as > 195 µM (not active).

As for `CC(=O)N1CCC2(CC1)CCN(c1cccc(-c3ccccc3)c1)CC2`, the half-maximal activity concentration (AC50) at Cytochrome P450 2D6 is 31.6 µM (inconclusive).

Turning to `CON(c1nc(N(C)C)nc(N(C)C)n1)S(=O)(=O)c1ccccc1Cl`, the AC50 at Cytochrome P450 2D6 was 25.1 µM (inconclusive); at Cytochrome P450 1A2 it was 14.1 µM (inconclusive).

Take `COc1ccc(NS(=O)(=O)NC(=O)c2cn(C)c3ccccc23)cc1`: in data set [1], the EC50 is > 195 µM (not active).

`Cc1cccc(CNc2ccnc(-c3cccc(NS(C)(=O)=O)c3)n2)c1`: the half-maximal activity concentration (AC50) on Cytochrome P450 2D6 was 39.8 µM (inconclusive).

Regarding `CCn1c(SCC(=O)N(C)C2CCS(=O)(=O)C2)nnc1-c1cccs1` (stereo unspecified), in data set [1], the EC50 is recorded as > 195 µM (not active).

Consider `Cc1cc(Cc2cc(Cc3cc(C)cc(C(C)(C)C)c3O)c(C)cc2C)c(O)c(C(C)(C)C)c1`, for which the half-maximal activity concentration (AC50) on Cytochrome P450 2D6 was 3.98 µM (inconclusive).

For `CC(Sc1nc(NCc2ccccc2)nc(N(C)C)n1)C(=O)Nc1ccccc1` (stereo unspecified), the half-maximal activity concentration (AC50) on Cytochrome P450 2D6 was 15.8 µM (inconclusive).

Consider `CC1CN(C(=O)Nc2ccc3c(c2)OCCO3)CC(C)O1` (stereo unspecified), for which the half-maximal effective concentration (EC50) in data set [1] is on record as > 195 µM (not active).

Regarding `Cc1ccccc1-c1cc(Nc2ccc(F)cc2)ncn1`, the AC50 on Cytochrome P450 3A4 was 39.8 µM (inconclusive); at Cytochrome P450 2D6, 31.6 µM (inconclusive).

For `O=C1c2ccccc2C(Nc2ccc3c(c2)OCCO3)N1c1ccccn1` (stereo unspecified), the EC50 in data set [1] is 57.5 µM (active).

On to `c1cc(C2N3CCCN2CC3)ccn1` (stereo unspecified), for which the AC50 entry is “inconclusive” at Cytochrome P450 2C19 and 1.26 µM (inconclusive) on Cytochrome P450 1A2.

Consider `O=C(O)c1cccc(N2C(=O)/C(=C/c3ccc([N+](=O)[O-])cc3)C=C2c2ccccc2)c1`, for which the EC50 in data set [1] is given as > 195 µM (not active).

Turning to `CCCOc1ccc(OCCNC2CCCC2)cc1`, the half-maximal activity concentration (AC50) is 31.6 µM (inconclusive) on Cytochrome P450 2C19 (read-out: AC50) and 14.1 µM (inconclusive) on Cytochrome P450 1A2.

Regarding `Cc1cc2ccccc2c(=O)n1CC(=O)Nc1ccc2c(c1)OCO2`, the EC50 in data set [1] is > 195 µM (not active).

`O=C(CNC1CCCCCC1)Nc1ccccc1N1CCCCC1`: the AC50 at Cytochrome P450 1A2 was 14.1 µM (inconclusive).

As for `CSc1ccccc1NC(=O)C1=CC(c2ccc(C)cc2)=NS(=O)(=O)N1C`, in data set [1], the EC50 is > 195 µM (not active).

Take `Cc1ccccc1-c1nccc(NCCN2CCOCC2)n1`: the AC50 on Cytochrome P450 2D6 was 31.6 µM (inconclusive).

Regarding `CC(=O)Cc1c[nH]c2ccccc12`, the 50% effective concentration (EC50) in data set [1] is > 195 µM (not active).

In the case of `CS(=O)(=O)Nc1cccc(-c2nccc(NCc3cccs3)n2)c1`, the AC50 on Cytochrome P450 2C19 (read-out: AC50) and on Cytochrome P450 2D6 was 25.1 µM (inconclusive) each time.

For the compound `O=C(CSc1ccc(Br)cc1)Nc1ccccc1N1CCOCC1`, in data set [1], the concentration giving a half-maximal response (EC50) is listed as > 195 µM (not active).

As to `O=C(c1ccncc1)N1CCC2(CC1)CN(c1ncccn1)C2`, the AC50 on Cytochrome P450 2D6 is 20 µM (inconclusive); on Cytochrome P450 1A2 it was 6.31 µM (inconclusive).

For `O=C(O)CCCc1ccc2ccccc2c1`, the half-maximal activity concentration (AC50) at Cytochrome P450 1A2 is 3.16 µM (inconclusive).

With `COc1cc(C(=O)Nc2ccc3c(c2)OCCO3)c(-n2cnnn2)cc1OC`, the AC50 entry at Cytochrome P450 2C19 is “inconclusive”; on Cytochrome P450 3A4, 25.1 µM (inconclusive); on Cytochrome P450 1A2, 2.51 µM (inconclusive).

Consider `C[C@@H]1CN([C@H](C)CO)C(=O)c2cccc(NS(=O)(=O)c3ccccc3)c2O[C@H]1CN(C)Cc1ccc(-c2ccccc2)cc1`, for which the half-maximal activity concentration (AC50) in data set [2] is 3.68 µM (active).

On to `O=C(c1ccccc1F)N1CC[C@H]2[C@H](CO)Nc3ccc(C#Cc4ccc(F)cc4)cc3[C@H]21`, for which the AC50 in data set [2] was 4.96 µM (active).

Consider `O=C(Nc1cccc(F)c1)N[C@@H]1CC[C@H](CCNS(=O)(=O)c2cccc(Cl)c2)O[C@H]1CO`, for which the AC50 in data set [2] was 31.2 µM (active).

Turning to `COc1cccc(-c2ccc3c(c2)[C@@H]2[C@@H](CCN2C(=O)C2CCCCC2)[C@H](CO)N3)c1`, the AC50 in data set [2] was 4.18 µM (active).

Take `O=C(C[C@H]1C[C@H]2c3cc(NC(=O)Cc4ccncc4)ccc3O[C@H]2[C@H](CO)O1)NCc1ccccc1`: the concentration at half-maximal activity (AC50) in data set [2] is 4.55 µM (active).

As to `COc1ccc2c3c([nH]c2c1)[C@H](CO)N(Cc1cc(F)ccc1F)CC31CN(C(=O)C2CCC2)C1`, in data set [2], the half-maximal activity concentration (AC50) is 7.04 µM (active).

For `OC[C@@H]1CC[C@@H]2O[C@H](CCc3ccc(C#Cc4ccccc4)cc3)[C@H](n3cc(-c4ccccc4)nn3)C[C@@H]2O1`, in data set [2], the AC50 was 3.86 µM (active).

As to `COc1ccc2c3c([nH]c2c1)[C@H](CO)N(Cc1ccc(F)cc1)CC31CCN(C(C)=O)CC1`, in data set [2], the half-maximal activity concentration (AC50) was 5.92 µM (active).

As to `C[C@@H]1CN([C@@H](C)CO)C(=O)c2c(c3ccccc3n2C)-c2ccccc2CO[C@H]1CN(C)C(=O)Cc1ccccc1`, the concentration at half-maximal activity (AC50) in data set [2] is 5.21 µM (active).

On to `C/C=C/c1ccc([C@H]2[C@@H](CO)N(C(=O)CC)[C@@H]2CNCC2CCCCC2)cc1`, for which the half-maximal activity concentration (AC50) in data set [2] is 4.04 µM (active).

For the compound `CN1CCN([C@@H]2Cc3ccccc3Sc3ccc(Cl)cc32)CC1`, the figures for the AC50 at Cytochrome P450 2C19 (read-out: AC50) and at Cytochrome P450 1A2 were 25.1 µM (inconclusive) and 12.6 µM (inconclusive), respectively.
